Data set [1] has as its system primary human lung fibroblasts. The experiment in a line: TGFβ1- or LPA-induced myofibroblast transformation (αSMA, COL1A1). Format: cell-based. The note with it: PIPE-791 1 µM. On the procedure:
TGFβ1 was used at 5 ng/mL. In addition to COL1A1 immunostaining, cells were co-immunostained with aSMA followed by a goat anti-rabbit Alexa647 secondary antibody.

The subject of data set [2] is LPA-induced mast cell histamine release. The data set is described as follows: In vivo LPA-induced histamine release. Further details: species or system mouse. On the procedure:
Female CD-1 mice (Envigo) were allowed to acclimate for ~ 1 week. Animals were subject to a 12 h light – 12 h dark cycle. Mice were multi-housed in Innorack IVC mouse racks (Innovive, San Diego, CA) with access to water and standard rodent chow ad libitum. […] Three hours or 24 h after a single dose or after the last of 4 repeated administrations, 150 µL FAF-PBS/BSA (Control) or LPA (300 µg in 150 µL) was administered IV via the lateral tail vein and mice were immediately placed into an isoflurane chamber. Two minutes later, mice were euthanized by decapitation and trunk blood collected into K3EDTA tubes and stored on wet ice until processing to plasma (1450 x g, 10 min, 4 °C). Plasma was aliquoted into two 96-well polypropylene plates and transferred to −80 °C for storage until analysis for histamine by EIA.

The test system of data set [3] is bleomycin-induced lung fibrosis. The data set is described as follows: Intratracheal bleomycin mouse model (14 day, prophylactic dosing). It is filed as in vivo. Particulars: for body weight improvement over bleomycin alone: day 14. On the procedure: Intratracheal instillation of bleomycin results in acute alveolar cell damage, inflammation, and subsequent tissue remodeling and is a widely used preclinical IPF model.
Female C57BL6/N mice 8–10 weeks old were obtained from Charles River. […] Bleomycin was administered by oropharyngeal instillation 23 h after first dose (Day 0). On the day of instillation, bleomycin was prepared by diluting a 15 unit (U) vial to 1.5 U/mL with sterile saline. Mice were lightly anesthetized with isoflurane (5% in 100% O2) and administered sterile saline or bleomycin (3.0 U/kg) via oropharyngeal instillation at a dose volume of 2 mL/kg (2 µL/g). Mice were returned to their cages and monitored daily for the duration of each experiment. […] Fourteen days after bleomycin instillation, mice were euthanized via isoflurane anaesthesia, cardiac blood collected into K3EDTA tubes and stored on wet ice, and BALF and lungs were isolated for subsequent analysis of biochemical and histopathological indices of lung injury, inflammation, and fibrosis. To do this, mice were intubated with a 20-gauge luer stub adapter connected to a 3-way stopcock fitted with two 3 mL syringes (the delivery syringe was pre-filled with 1.5 mL phosphate buffered saline (PBS), and the receiving syringe was empty). Lungs were lavaged with PBS (2 × 0.75 mL) to obtain BALF. BALF was placed on wet ice until centrifugation to separate from cells. Lungs were dissected and placed into 1 mL 6 M HCl for collagen analysis using the Quickzyme total collagen assay kit according to manufacturer’s instructions. At the end of the experimental collection, BALF was centrifuged (300 x g, 10 min, 4 °C) to isolate BALF from the cell pellet. The cell pellet was discarded and the BALF aliquoted and stored at −80 °C for biomarker analysis. For the analysis, n = 8 biological replicates were analyzed in singlicate for various biomarkers (total protein, TGFβ1, TIMP-1, procollagen) according to manufacturer’s recommended instructions.

For data set [4], the system named is primary human alveolar macrophages. The data set is described as follows: LPS-induced IL-1β release. Format: cell-based. On the procedure: Human macrophages were cultured in Human Alveolar Macrophage Media per manufacturer’s instructions. […] Cells were then co-stimulated with 500 ng/mL LPS for 4 h. Plates were spun down and supernatant collected for analysis using a human IL-1β ELISA kit per manufacturer’s directions.

Data set [5] deals with fresh human PCLS from donors with pulmonary fibrosis. The data set is described as follows: Secreted biomarkers in fresh PCLS from pulmonary fibrosis donors. It is filed as cell-based. The note with it: PIPE-791 0.03, 0.3, 3 µM; 48 h. From the text:
Translationally, biomarker-based strategies for assessing aberrant extracellular matrix deposition and remodeling in the context of disease pathogenesis and compound efficacy have become increasingly relevant. For the PCLS gene expression studies, slices were preserved through slow cryogenic freezing of tissue. While this affords experimental flexibility, some physiological relevance is lost over the course of cryostorage and recovery (e.g., immune cell loss). To circumvent this, fresh PCLS from two donors with pulmonary fibrosis were generated and immediately placed into culture. For this experiment, well-established, secreted fibrotic markers that encompass fibrogenesis and tissue remodeling were measured: C3M (a marker of collagen III degradation and an indicant of ECM remodeling and tissue turnover), Pro-C3 (a neo-epitope fragment of collagen III and a marker of active fibrogenesis and fibrosis progression), and Pro-C6 (a neoepitope fragment of COLVIA3 and a marker of remodeling and wound healing). […] Media was then removed and analyzed for biomarker concentration.
PCLS cultures for secreted biomarker analysis were performed at Fraunhofer ITEM (Hanover, Germany) using tissue from pathologist qualified, pulmonary fibrosis patients. Tissue from individual donors and 2 lung regions were collected in accordance with policies approved by the Hanover Medical School ethics committee. Only fibrotic tissue was used for experiments. Region 1 consisted of subpleural tissue and Region 2 of central tissue. For each, lung lobes were filled with low-melting agarose then sectioned at 300 μm on a Krumdiek tissue slicer as described in Hesse et al., 2022. Slices were incubated in DMEM containing penicillin and streptomycin, two slices per region were used. […] Supernatant was collected and shipped to Nordic Bioscience (Herlev, Denmark) for C3M, Pro-C6 and Pro-C3 analysis. Donor information can be found in Additional File 1.

On the set-up of data set [6]: method as in NCT05983939. The note with it: Phase I; ref NCT05983939; cited from earlier work.

As for `COc1ccc(NC(=O)N(c2ccccc2C(C)C)C2CCC(C(=O)O)CC2)c(OC(F)F)n1` (stereo not drawn) [PIPE-791], in data set [1] (LPA stimulation), the COL1A1 induction entry is recorded as “significantly inhibited” and the αSMA expression result is recorded as “significantly inhibited”. In addition, in data set [1] (TGFβ1 stimulation), the COL1A1 induction result is reported as “significantly inhibited” and the αSMA expression entry is “significantly inhibited”. In addition, the “blockade of LPA-induced histamine release” value (shortened to “blockade”) in data set [2] (oral, 4 consecutive days (steady state), LPA 3 or 24 h after final dose) was “significant efficacy at 0.3 and 3 mg/kg was observed at both timepoints”. Also, the “blockade” value in data set [2] (single oral dose 0.3 mg/kg, LPA challenge 3 or 24 h later) is reported as “significance was observed at 24 h but not at 3 h”. Further, the “blockade” value in data set [2] (single oral dose 3 mg/kg, LPA challenge 3 or 24 h later) is listed as “significant blockade of histamine release”. Besides, the “body weight improvement over bleomycin alone” value in data set [3] (0.03 mg/kg oral once a day) stood at 28%. Besides, in data set [3] (0.03 mg/kg oral once a day, p = 0.077), the “lung hydroxyproline (collagen)” value is “trending decrease in collagen, the values did not reach statistical significance”. In data set [3] (0.3 mg/kg oral once a day), the “reduction in lung hydroxyproline” value was determined as 41% and the “body weight improvement over bleomycin alone” value amounted to 41%. In addition, in data set [3] (3 mg/kg oral once a day), the “reduction in BAL fluid TGFβ vs bleomycin/vehicle” value is listed as 51%, the “reduction in BAL fluid TIMP1 vs bleomycin/vehicle” value was 57%, the “reduction in BAL fluid procollagen vs bleomycin/vehicle” value is given as 65% and the “reduction in lung hydroxyproline” value is 39%. In data set [3] (3 mg/kg oral once a day), the “body weight improvement over bleomycin alone” value is given as 38%. Further, the survival result in data set [3] (0.03, 0.3, 3 mg/kg groups, 3 mice died in bleomycin/vehicle group) is on record as “no mice lost”. Besides, the “maximal inhibition of lung collagen” value in data set [3] (prophylactic, at 0.3 mg/kg (discussion)) was 40%. The “LPS-induced IL-1β in culture media” value in data set [4] (500 ng/mL LPS 4 h, LPS alone 4.3-fold increase) is given as “inhibited to baseline levels”. Besides, in data set [4] (no LPS), the “IL-1β in culture media, compound alone” value was “No increase was observed”. Also, in data set [5], the “secreted C3M” value was “reduction in C3M secretion with PIPE-791 at all concentrations tested, with significance observed at 0.03 and 3 µM”; the “secreted Pro-C3” value is listed as “did not observe a significant decrease”; the “secreted Pro-C6” value is “significant reduction in secreted Pro-C6 at all concentrations”. Further, the safety and tolerability entry in data set [6] was “safe and well-tolerated”.

The record behind these values is paper PMC12400753 (Respiratory Research, 2025).
